Target: PCSK9 (Homo sapiens, UniProt Q8NBP7)
Assay: BODIPY-LDL uptake assay in HepG2 cells
Format: cell-based
Details: 5 μg/ml PCSK9, BODIPY-LDL
Procedure: BODIPY-LDL Uptake Assay in HepG2 Cells.
An established assay for PCSK9 inhibition features uptake of fluorescently labeled LDL nanoparticles (BODIPY-LDL) by hepatocytes and uptake of the BODIPY-containing particles is maximized in the absence of PCSK9.
In the LDL uptake assay, HepG2 cells were seeded at a density of 6×10^4 cells/well in a 96-well plate. After 24 h, the test compounds at various concentrations were pre-incubated with 5 μg/ml PCSK9 in 0.2% DMSO for 60 min prior to the addition on to the cells. After 16 h the medium was removed and 1 μg/ml BODIPY-LDL (Invitrogen) in serum free media was added and incubated for 5 h. Then the cells were washed twice with 0.25% BSA in PBS. Then the fluorescence of the cells in PBS was measured using TECAN multimode reader (Excitation: 485 nm and Emission: 520 nm). The readings were taken in triplicate and the final values were normalized with the protein concentration from respective wells. The wells without test compound containing external PCSK9 is considered as zero uptake and the one without PCSK9 was considered as 100% uptake. The percentage increase in LDL uptake for the test compounds were calculated using these values.

Sequence of PCSK9 (Q8NBP7 153-692): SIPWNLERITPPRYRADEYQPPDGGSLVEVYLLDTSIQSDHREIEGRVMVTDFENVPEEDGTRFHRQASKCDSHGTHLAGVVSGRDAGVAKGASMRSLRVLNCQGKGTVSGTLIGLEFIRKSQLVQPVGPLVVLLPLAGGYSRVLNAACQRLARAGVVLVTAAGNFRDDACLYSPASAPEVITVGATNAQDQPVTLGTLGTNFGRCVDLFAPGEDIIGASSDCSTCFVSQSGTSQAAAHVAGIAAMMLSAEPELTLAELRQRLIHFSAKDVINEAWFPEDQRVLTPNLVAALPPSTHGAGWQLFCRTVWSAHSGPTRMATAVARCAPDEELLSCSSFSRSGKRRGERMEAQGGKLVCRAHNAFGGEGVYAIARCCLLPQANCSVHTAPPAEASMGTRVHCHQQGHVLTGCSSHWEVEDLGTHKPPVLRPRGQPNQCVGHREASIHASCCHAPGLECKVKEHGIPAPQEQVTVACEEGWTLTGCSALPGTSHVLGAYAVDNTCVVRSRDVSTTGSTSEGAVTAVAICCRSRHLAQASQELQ

% increase in LDL Uptake (1 μM test compound) [%] | % increase in LDL Uptake (10 μM test compound) [%] | % increase in LDL Uptake (30 μM test compound) [%] | SMILES
−2 | 39 | 34 | O=C(Nc1ccc(C2(O)COC2)cc1)C1CCN(c2ccc(C(F)(F)F)cc2)CC1 [Example 3, N-(4-(3-hydroxyoxetan-3-yl)phenyl)-1-(4-(trifluoromethyl)phenyl) piperidine-4-carboxamide]
38 | 58 | 77 | O=C(Nc1ccc(C2(O)COC2)cc1)N1CCC(c2ccc(C(F)(F)F)cc2)CC1 [Example 4, N-(4-(3-hydroxyoxetan-3-yl)phenyl)-4-(4-(trifluoromethyl)phenyl) piperidine-1-carboxamide]
41 | 76 | 72 | COC1(c2ccc(NC(=O)N3CCC(c4ccc(C(F)(F)F)cc4)CC3)cc2)COC1 [Example 5, N-(4-(3-methoxyoxetan-3-yl)phenyl)-4-(4-(trifluoromethyl)phenyl) piperidine-1-carboxamide]
28 | 63 | 128 | O=S(=O)(c1ccc(C2(O)COC2)cc1)N1CCN(c2ccc(C(F)(F)F)cc2)CC1 [Example 7, 3-(4-((4-(4-(trifluoromethyl)phenyl)piperazin-1-yl)sulfonyl)phenyl) oxetan-3-ol]
21 | 32 | 34 | O=C(c1ccc(C2(OCCO)COC2)cc1)N1CC2CN(c3ccc(C(F)(F)F)cc3)CC2C1 (stereo not drawn) [Example 12, (4-(3-(2-hydroxyethoxy)oxetan-3-yl)phenyl)(5-(4-(trifluoromethyl)phenyl)hexahydropyrrolo[3,4-c]pyrrol-2(1H)-yl)methanone]
29 | 43 | 33 | O=C(O)COC1(c2ccc(C(=O)N3CC4CN(c5ccc(C(F)(F)F)cc5)CC4C3)cc2)COC1 (stereo not drawn) [Example 13, 2-((3-(4-(5-(4-(trifluoromethyl)phenyl)octahydropyrrolo[3,4-c]pyrrole-2-carbonyl)phenyl)oxetan-3-yl)oxy)acetic acid]
0 | 20 | 122 | O=C(c1ccc(C2(O)COC2)cc1)N1CCC(c2cc(F)cc(C(F)(F)F)c2)CC1 [Example 14, (4-(3-fluoro-5-(trifluoromethyl)phenyl)piperidin-1-yl)(4-(3-hydroxyoxetan-3-yl)phenyl)methanone]
38 | 22 | 19 | OC1(c2ccc(-c3nc(-c4ccc(C(F)(F)F)c(F)c4)no3)cc2)COC1 [Example 16, 3-(4-(3-(3-fluoro-4-(trifluoromethyl)phenyl)-1,2,4-oxadiazol-5-yl)phenyl) oxetan-3-ol]
0 | 7 | 18 | Cn1nc(-c2ccc(C(F)(F)F)cc2)c2c1CN(C(=O)c1ccc(C3(O)COC3)cc1)C2 [Example 20, (4-(3-hydroxyoxetan-3-yl)phenyl)(1-methyl-3-(4-(trifluoromethyl)phenyl)-4,6-dihydropyrrolo[3,4-c]pyrazol-5(1H)-yl)methanone]
0 | 19 | 14 | O=C(c1ccc(C2(O)COC2)cc1)N1CCC(c2ccc(OC(F)(F)F)cc2)CC1 [Example 22, (4-(3-hydroxyoxetan-3-yl)phenyl)(4-(4-(trifluoromethoxy)phenyl)piperidin-1-yl)methanone]
15 | 21 | 33 | COc1ccc(C2CCN(C(=O)c3ccc(C4(O)COC4)cc3)CC2)cc1Cl [Example 26, (4-(3-chloro-4-methoxyphenyl)piperidin-1-yl)(4-(3-hydroxyoxetan-3-yl)phenyl)methanone]
14 | 21 | 38 | COc1ccc(C2CCN(C(=O)c3ccc(C4(O)COC4)cc3)CC2)cc1 [Example 27, (4-(3-hydroxyoxetan-3-yl)phenyl)(4-(4-methoxyphenyl)piperidin-1-yl)methanone]
0 | 8 | 39 | COc1ccc(C2CCN(C(=O)c3ccc(C4(O)COC4)cc3)CC2)cc1F [Example 28, (4-(3-fluoro-4-methoxyphenyl)piperidin-1-yl)(4-(3-hydroxyoxetan-3-yl)phenyl)methanone]
0 | 17 | 49 | Cc1ccc(C2CCN(C(=O)c3ccc(C4(O)COC4)cc3)CC2)cc1Cl [Example 29, (4-(3-chloro-4-methylphenyl)piperidin-1-yl)(4-(3-hydroxyoxetan-3-yl)phenyl)methanone]
12 | 30 | 33 | O=C(c1ccc(C2(O)COC2)cc1)N1CCC(c2ccc(C(F)(F)F)c(Cl)c2)CC1 [Example 32, (4-(3-chloro-4-(trifluoromethyl)phenyl)piperidin-1-yl)(4-(3-hydroxyoxetan-3-yl)phenyl)methanone]
59 | 73 | 69 | O=C(c1ccc(C2(O)COC2)cc1)N1CCC(c2ccccc2C(F)(F)F)CC1 [Example 33, (4-(3-hydroxyoxetan-3-yl)phenyl)(4-(2-(trifluoromethyl)phenyl)piperidin-1-yl)methanone]
0 | 9 | 17 | CC(=O)OC1(c2ccc(C(=O)N3CCC(c4ccc(C(F)(F)F)cc4)CC3)cc2)COC1 [Example 36, 3-(4-(4-(4-(trifluoromethyl)phenyl)piperidine-1-carbonyl)phenyl) oxetan-3-yl acetate]
31 | 65 | 36 | COC1(c2ccc(C(=O)N3CCC(c4cccc(C(F)(F)F)c4)CC3)cc2)COC1 [Example 37, (4-(3-methoxyoxetan-3-yl)phenyl)(4-(3-(trifluoromethyl)phenyl)piperidin-1-yl)methanone]
43 | 51 | 25 | COC1(c2ccc(C(=O)N3CCC(c4ccc(C(F)(F)F)c(F)c4)CC3)cc2)COC1 [Example 38, (4-(3-fluoro-4-(trifluoromethyl)phenyl)piperidin-1-yl)(4-(3-methoxyoxetan-3-yl)phenyl)methanone]
20 | 25 | 4 | CCOC1(c2ccc(C(=O)N3CCC(c4ccc(C(F)(F)F)c(F)c4)CC3)cc2)COC1 [Example 42, (4-(3-ethoxyoxetan-3-yl)phenyl)(4-(3-fluoro-4-(trifluoromethyl)phenyl)piperidin-1-yl)methanone]
31 | 56 | 77 | CC(C)OC1(c2ccc(C(=O)N3CCC(c4ccc(C(F)(F)F)cc4)CC3)cc2)COC1 [Example 44, (4-(3-isopropoxyoxetan-3-yl)phenyl)(4-(4-(trifluoromethyl)phenyl)piperidin-1-yl)methanone]
28 | 47 | 34 | O=C(c1ccc(C2(OCC3CC3)COC2)cc1)N1CCC(c2ccc(C(F)(F)F)cc2)CC1 [Example 46, (4-(3-(cyclopropylmethoxy)oxetan-3-yl)phenyl)(4-(4-(trifluoromethyl)phenyl)piperidin-1-yl)methanone]
0 | 142 | 234 | O=C(c1cccc(C2(O)COC2)c1)N1CCCC(c2ccc(C(F)(F)F)cc2)C1 (stereo not drawn) [Example 48, (3-(3-hydroxyoxetan-3-yl)phenyl)(3-(4-(trifluoromethyl)phenyl)piperidin-1-yl)methanone]
11 | 45 | 74 | O=C(c1cncc(C2(O)COC2)c1)N1CCC(c2ccc(C(F)(F)F)cc2)CC1 [Example 49, (5-(3-hydroxyoxetan-3-yl)pyridin-3-yl)(4-(4-(trifluoromethyl)phenyl)piperidin-1-yl)methanone]
11 | 79 | 131 | COC1(c2cccc(C(=O)N3CCCC(c4ccc(C(F)(F)F)cc4)C3)c2)COC1 (stereo not drawn) [Example 51, (3-(3-methoxyoxetan-3-yl)phenyl)(3-(4-(trifluoromethyl)phenyl)piperidin-1-yl)methanone]

SMILES | % increase in LDL Uptake (1 μM test compound) [%] | % increase in LDL Uptake (10 μM test compound) [%] | % increase in LDL Uptake (30 μM test compound) [%]
CC(C)COC1(c2ccc(C(=O)N3CCC(c4ccc(C(F)(F)F)cc4)CC3)cc2)COC1 [Example 45, (4-(3-isobutoxyoxetan-3-yl)phenyl)(4-(4-(trifluoromethyl)phenyl)piperidin-1-yl)methanone] | 19 | 9 | 4
